Tests used:
[1] = tested on: Salmonella typhimurium TA102 strain; test: Antimutagenic effect on mutagenesis induced by reactive oxygen species (His+ revertant colonies); assay type: cell-based; settings: compared with curcumin as positive control
Description: The antimutagenic effect of xanthorrhizol was examined in Salmonella typhimurium TA102 strain including mutagenesis with reactive oxygen species (Levin, D. E., et al., Proc. Natl. Acad. Sci. U. S. A., 79;7445-7449, 1982).
Salmonella typhimurium TA102 strain was cultured in Oxoid nutrient broth medium for 11 hours. 100 μl of above-cultured medium was added to 600 μl of the reaction mixture containing tert-butylhydroperoxide (100 μg/plate) or hydrogen peroxide (50 μg/plate) with or without xanthorrhizol and incubated for 30 minutes at 37° C. Curcumin was added instead of xanthorrhizol in positive control. The concentration of xanthorrhizol or curcumin was 0, 10, 20, 40, 60 nmol/plate and 2, 4, 8, 10, 20, 50 nmol/plate respectively in experiment to examine the inhibitory effect of xanthorrhizol against tert-butylhydroperoxide and hydrogen peroxide-induced mutagenesis. The reaction mixture was transferred to 2 ml of top agar solution containing 0.5 mM of histidine and biotin and was homogeneously mixed. It was poured to minimal glucose plate. The plates were incubated for 48 hours at 37° C. and the number of His+ revertant colonies counted.

iNOS = molecular target: T1, iNOS (Mus musculus, UniProt P29477); test: Inhibition of LPS-induced iNOS activity (nitric oxide production) in RAW264.7 macrophage cells; assay type: cell-based; settings: LPS 1 μg/ml, 20 hr
T1 construct: endogenous in cells; host or cells: RAW264.7 macrophage cells, LPS-stimulated
T1 sequence (P29477 1-1144): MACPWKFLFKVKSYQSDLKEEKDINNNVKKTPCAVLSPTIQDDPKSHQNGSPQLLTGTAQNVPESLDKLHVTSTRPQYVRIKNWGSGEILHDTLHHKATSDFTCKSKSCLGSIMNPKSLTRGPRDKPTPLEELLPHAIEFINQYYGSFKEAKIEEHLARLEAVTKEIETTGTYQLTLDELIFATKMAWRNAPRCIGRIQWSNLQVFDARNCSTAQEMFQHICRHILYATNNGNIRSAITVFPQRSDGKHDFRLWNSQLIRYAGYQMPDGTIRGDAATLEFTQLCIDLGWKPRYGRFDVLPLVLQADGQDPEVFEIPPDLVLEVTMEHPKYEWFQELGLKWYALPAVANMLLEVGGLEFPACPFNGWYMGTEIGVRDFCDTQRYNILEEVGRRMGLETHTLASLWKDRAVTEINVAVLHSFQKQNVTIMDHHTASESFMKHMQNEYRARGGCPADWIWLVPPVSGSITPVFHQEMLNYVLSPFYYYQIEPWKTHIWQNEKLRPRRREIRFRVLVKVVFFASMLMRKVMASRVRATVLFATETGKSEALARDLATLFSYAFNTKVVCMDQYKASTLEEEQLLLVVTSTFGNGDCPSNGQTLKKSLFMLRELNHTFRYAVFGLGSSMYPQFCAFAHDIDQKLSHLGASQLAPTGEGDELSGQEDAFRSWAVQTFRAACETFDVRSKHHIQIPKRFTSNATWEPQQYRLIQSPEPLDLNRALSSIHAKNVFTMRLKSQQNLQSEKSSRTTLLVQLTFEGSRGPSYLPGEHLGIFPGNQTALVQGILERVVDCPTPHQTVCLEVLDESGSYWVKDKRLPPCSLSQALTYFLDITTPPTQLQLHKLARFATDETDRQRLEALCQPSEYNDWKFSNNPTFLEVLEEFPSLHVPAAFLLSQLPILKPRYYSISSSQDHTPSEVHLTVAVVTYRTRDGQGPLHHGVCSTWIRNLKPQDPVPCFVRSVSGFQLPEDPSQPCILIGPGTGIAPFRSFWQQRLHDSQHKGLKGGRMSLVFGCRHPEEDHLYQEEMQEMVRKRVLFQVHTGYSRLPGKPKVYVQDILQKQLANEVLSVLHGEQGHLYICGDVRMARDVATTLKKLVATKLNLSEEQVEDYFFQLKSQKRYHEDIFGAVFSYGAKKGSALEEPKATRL
Description: The effect of xanthorrhizol on iNOS activity induced by LPS was measured. RAW264.7 macrophage cells were maintained in DMEM supplemented with penicillin-streptomycin and 10% FBS at 37° C., in 5% CO2 of humidified air. The cells in 10% FBS-DMEM without phenol red media were plated in 24-well plates (8×10^5/ml), and then incubated for 4 hr. The cells were replaced with new media, and incubated in the medium with 1 μg/ml of LPS and xanthorrhizol. After an additional 20 hr incubation, the media were removed and analyzed for nitrite accumulation as an indicator of NO production by the Griess reaction. 150 μl of Griess reagent were added to 100 μl of each supernatant from LPS and/or xanthorrhizol treated cells in triplicate. The plates were incubated for 10 min, and were read at 570 nm against a standard curve of NaNO2. The percentage inhibition was expressed as [1−(NO level of sample/NO level of vehicle treated−control)]×100.

HL-60 cells = test: Flow cytometric cell cycle analysis of HL-60 cells (sub-G1 phase); assay type: cell-based, Human; settings: 24 hours, control 20%
Description: The effect of xanthorrhizol on cell cycle was examined by flow cytometric analysis. HL-60 cells were cultured in serum-free RPMI 1640 medium for 48 hr to stop cell cycle at GO phase. The medium was exchanged to 10% FBS-RPMI 1640 media with 0, 20, 60 μM of xanthorrhizol, respectively. 24 hours later, the cells obtained after centrifugation were fixed in 70% ethanol at −20° C. overnight. The cells were washed twice again with PBS, and incubated with 100 U/ml of Rnase at 37° C. for 1 hr. The cell pellet was resuspended in propidium iodide solution after washing twice with PBS. The cells were analyzed by flow cytometry and the result was represented at FIG. 11.

procaspase-3 = test: Activation of procaspase-3 in HL-60 cells (western blotting); assay type: cell-based, Human; settings: 40 μM
Description: To investigate whether xanthorrhizol also induces the activation of procaspase-3, HL-60 cells were treated with 0, 10, 40, 80 μM of xanthorrhizol for 24 hr and was also treated with 80 μM of xanthorrhizol for 0, 2, 4, 6, 9 and 12 hr. The cells were harvested, suspended in 400 μl of lysis buffer described in embodiment 4, incubated 4° C. for 40 min and centrifuged. The supernatant was electrophoresized on the 12% SDS-polyacrylamide gel. Blot was transferred from SDS-polyacrylamide gel to PVDF membrane, blocked with 5% fat-free dry milk-PBST buffer for 2 hr at room temperature and then washed in PBST buffer. Membrane was incubated for 2 hr at room temperature with mouse procaspase-3 monoclonal antibody (Transduction Laboratories, Lexington, Ky., USA). Blot was rinsed with PBST, incubated with mouse horseradish peroxidase-conjugated secondary antibody and again washed 3 times in PBST buffer for 5 min. Transferred protein was visualized with an ECL detection kit.

SMILES: CC(C)=CCC[C@@H](C)c1ccc(C)c(O)c1 [xanthorrhizol]
- inhibitory effect against mutagenesis induced by hydrogen peroxide ([1]; hydrogen peroxide 50 μg/plate): more excellent inhibitory effect
- inhibitory effect against mutagenesis induced by tert-butylhydroperoxide ([1]; tert-butylhydroperoxide 100 μg/plate): more excellent inhibitory effect
- IC50 (iNOS; read-out: IC50, LPS-induced iNOS activity (NO) (converted)): 4.63 µM
- inhibition at 10 µg/mL (iNOS; RAW264.7, 10 μg/ml, read-out: percentage inhibition of LPS-induced nitric oxide production (iNOS activity)): ≥ 99%
- proportion of cells in sub-G1 phase (apoptosis peak) (HL-60 cells; 20 μM): 36%
- proportion of cells in sub-G1 phase (apoptosis peak) (HL-60 cells; 60 μM): 76%
- activation of procaspase-3 (procaspase-3): activated the procaspase-3 to caspase-3

From patent US20050261162A1, “Pharmaceutical composition for preventing and treating cancer and treating an inflammation” (priority 2001, published 2005)
